The values below are quoted from earlier work in patent US7276641B2, “External plaster containing 4-biphenylacetic acid” (Teikoku Seiyaku Co., Ltd., priority 2000, dated 2007).

Each structure is given as a SMILES string. Read-outs that look alike come from different tables or passages of the source.

Turning to `O=C(O)Cc1ccc(-c2ccccc2)cc1` [BPAA, 4-biphenylyl acetic acid], the solubility result runs as follows: (aqueous plaster with diisopropanolamine as solubilizer) “not more than 11%”; (crotamiton as solubilizer) “at most 7%”; (in acetone, ethanol, glacial acetic acid, and ether) “less soluble”; (in dimethylacetamide) “readily soluble”; (in polyols, glycols, and esters) “hardly soluble”; (in water) “hardly soluble”.
